A short description of the data set: in vitro. To be noted: human, hela cells, % viability.

As usually defined, the viability is a read-out of living cells in per cent, often relative to untreated cells.

Take `O=C(Nc1nnc(C2=COCCO2)o1)c1ccc(Cl)cc1Cl` [CBK287419]: the viability at 28.5 h, 10 µM came out at 78%.
Under `CC1(C)NC(=O)N(CC(O)CN2CCCC2)C1=O` (stereo not shown) [CBK264558] stands 96.3%; under `CN(C)C(=O)COc1cccc(Nc2nc(Br)cn3ccnc23)c1` [CBK037989], 92.8%.
`CC(C)NC(=O)N1Cc2nc[nH]c2C[C@H]1c1nc(-c2ccc(OC(F)(F)F)cc2)no1` [CBK288960]: the viability at 28.5 h, 10 µM worked out at 85.9%.
As for `[O-][S+](c1ccc(Cl)c(Cl)c1)c1cc2c(N3CCCNCC3)nccc2s1` (stereo not shown) [CBK038304C], the figure is 71.2%.
As for `Cc1cc(C)c2cc(C(=O)N(C)CC3(C)COC3)[nH]c2c1` [CBK281711], the figure is 87%; as for `NC(=O)CCNC(=O)C1(c2ccccc2)CCCC1` [CBK160929], 104%; as for `Cc1nn(CCCC(=O)Nc2sc3c(c2C#N)CCC(C(C)(C)C)C3)c(C)c1[N+](=O)[O-]` (stereo not shown) [CBK268982], 103%.
Under `CCCCCCN1CCC2CN(CCCC(=O)c3ccc(F)cc3)CCN2C1=O` (stereo not shown) [CBK024890C] stands 99%; under `CCc1ccc(OC)c(S(=O)(=O)NC2CC(C)(C)NC(C)(C)C2)c1` [CBK270098], 101%.
For `COc1ccccc1-c1nccnc1OCCc1ccc(NC(C)=O)cc1` [CBK106815], the viability at 28.5 h, 10 µM was 115%.
Under `C=CCn1c2ccccc2c2nnc(SCC(=O)Nc3c(C)n(C)n(-c4ccccc4)c3=O)nc21` [CBK263892] stands 87.6%; under `COc1ccc(N2CCN(Cc3nc4c(c(=O)n(C)c(=O)n4C)n3Cc3cccc(C)c3)CC2)cc1` [CBK269552], 78.4%; under `CCNC(=O)Nc1ccc2c(-c3ccc4c(c3)CCO4)ccnc2n1` [CBK070673], 96.2%.
As for `O=C(Nc1ccc(Cl)cc1)Nc1cccc(C(=O)O)c1` [CBK269404], the figure is 98.7%; as for `O/N=C/c1c[nH]c2ccccc12` [CBK168630], 102%; as for `CC(C)(C)c1ccnc(N[C@H]2CO[C@H]3[C@@H]2OC[C@@H]3NS(=O)(=O)Cc2ccccc2)n1` [CBK289521], 91.4%.
Under `CCN(Cc1ccncc1)C(=O)NCc1cnc(C)cn1` [CBK155128] stands 105%; under `O=C(Cn1c(-c2cncs2)nc2ccccc21)Nc1ccc(C(=O)N2CCCCC2)cc1` [CBK269439], 102%.
In the case of `C[S+]([O-])CCNC(=O)c1cnn(-c2ccc(F)cc2)c1` (stereo not shown) [CBK283245], the viability at 28.5 h, 10 µM amounted to 89.1%.
Consider `CC1=C[C@@H](CNC(=O)c2cccnc2)[C@H](C(C)C)C[C@H]1CC(=O)N1CCOCC1` [CBK289053], for which the viability at 28.5 h, 10 µM came out at 92.4%.
As for `CCC(=O)NCc1ccc(-c2nc3ncccc3o2)cc1` [CBK270220], the figure is 108%.
As for `COc1cc(/C=C2\S/C(=N/c3ccc(S(N)(=O)=O)cc3)NC2=O)c(Br)cc1O` [CBK265711], the figure is 96.9%.
Under `CC(C)C(NS(=O)(=O)c1ccc([N+](=O)[O-])cc1)C(C)C` [CBK267656] stands 94.8%; under `O=C(O)CC1S/C(=N/N=C/c2ccc(-c3cccc([N+](=O)[O-])c3)o2)NC1=O` (stereo not shown) [CBK264517], 113%; under `CN(C)c1ccc(-c2[nH][nH]c(=O)c2CCCN)cc1` [CBK288406], 105%.
Turning to `COc1ccc(CCNC(=O)N2CCCC(C(=O)O)C2)cc1` (stereo not shown) [CBK161367], the viability at 28.5 h, 10 µM turned out to be 101%.
As for `OC1(c2cccnc2)CCN(CC2(c3ccc(Cl)cc3)CC2)CC1` [CBK282780], the figure is 93%.
As for `O=C(CSC1c2ccccc2Sc2ccccc21)Nc1ccc(C(=O)O)cc1` [CBK267542], the figure is 111%; as for `C[C@H](Nc1ccc(C(F)(F)F)cc1[N+](=O)[O-])C(=O)NCCOc1ccccc1F` [CBK297535], 106%.
With `CCOc1cc(NC2CCN(C(=O)Cc3cc(C)on3)CC2)ncn1` [CBK304689], the viability at 28.5 h, 10 µM stood at 113%.

Source of the values: article PMC12040169 (PLOS Biology, 2025).
